Laboratory results published in US9023384B2, “Liposome and method for injecting substance to cell using this liposome” (Tokyo Medical and Dental University, priority 2004, dated 2015).

Legend:
[1] = tested on: COX-2 mRNA in U2OS cells carrying expressed Cx43; assay: COX-2 expression by RT-PCR after IL-1 stimulation; type: cell-based
Protocol: Specifically, the U2OS cells used in Example 2 was initially cultured until 80 to 90% density in a 10-cm culture dish, on which a liposome containing the NBD peptide was then allowed to act for 12 hours. In this example, the liposome used was constructed in the same way as in Example 1 except that a solution used contained 50 μL of the NBD peptide.
In FIG. 8, “Cx-U2OS” denotes a result obtained using a liposome having connexon, and “U2OS” denotes a result obtained using a liposome having no connexon. […] Moreover, the suppression of COX-2 expression was not confirmed in the administration of NBD alone, the administration of NBD using the liposome having no Cx43 expression, administration after pretreatment with GA, and the administration of mutant NBD. Furthermore, the NBD effect was not confirmed on U2OS having no Cx43 expression.

[2] = tested on: NFκB activity in U2OS cells carrying expressed Cx43; assay: NF-kB reporter gene assay (intracellular luciferase activity) after IL-1β stimulation; type: cell-based
Source text: As schematically shown in FIG. 6, an IKK complex is activated by IL-1β stimulation or the like and thereby phosphorylates IκB. The phosphorylated IκB is further polyubiquitinated and degraded by a pathway in a proteasome system. As a result, the suppressive effect of IκB on NFκB (p50+p65) disappears. The nuclear-imported NFκB increases the transcriptional activity of a gene of interest. A NEMO Binding Domain ((SEQ ID NO:3); hereinafter, NBD) is known to be a sequence present in the C-terminus of IKKβ, one component in the IKK complex, and be necessary for binding with IKKγ (NEMO). The solubilized NBD oligopeptide originally suppresses normal IKK functions through its competitive inhibition of the binding of IKKβ with NEMO and thereby suppresses the nuclear import of NFκB and the transcription of a gene of interest. […] Thus, in this example, a liposome having connexon consisting of Cx43 was used to attempt the administration of the NBD peptide into cells via a gap junction.
Specifically, the U2OS cells used in Example 2 was initially cultured until 80 to 90% density in a 10-cm culture dish, on which a liposome containing the NBD peptide was then allowed to act for 12 hours. In this example, the liposome used was constructed in the same way as in Example 1 except that a solution used contained 50 μL of the NBD peptide. […]

| Compound | suppression of IL-1 stimulation-induced rises in COX-2 expression ([1]; cells carrying expressed Cx43) | suppression of IL-1β stimulation-induced rises in NFκB activity ([2]; liposome for 12 hours, then IL-1β for 24 hours, cells carrying expressed Cx43) | suppression of COX-2 expression by NBD administration after pretreatment with GA ([1]; pretreatment with GA) | effect of pretreatment with gap junction inhibitor on the NBD effect on NFκB activity ([2]; pretreatment before NBD administration using Cx43-expressing liposome) |
| --- | --- | --- | --- | --- |
| NBD peptide: NEMO Binding Domain oligopeptide (SEQ ID NO:3), administered without liposome (TALDWSWLQTE; listed as Homo sapiens) | not confirmed | not confirmed | – | – |
| CC1(C)[C@@H](O)CC[C@]2(C)[C@H]3C(=O)C=C4[C@@H]5C[C@@](C)(C(=O)O)CC[C@]5(C)CC[C@@]4(C)[C@]3(C)CC[C@@H]12 [18β-glycyrrhetinic acid] | – | – | not confirmed | suppressed the NBD effect |
